These results are taken from the supplement of paper PMC10307832.

Common to all, as to assay: relative viability (nuclei count vs DMSO), 5 days (fraction); higher = more cells survive
Compound in experiment [1]: CCc1c2c(nc3ccc(OC(=O)N4CCC(N5CCCCC5)CC4)cc13)-c1cc3c(c(=O)n1C2)COC(=O)[C@]3(O)CC [Irinotecan] + O=C(CCCCCCC(=O)Nc1ccccc1)NO [Vorinostat] (partner 1 µM)
In short, it runs like this: (§1)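 The day after seeding in 1536-well plates, lung cancer cell lines were treated by pin tool with a single drug, or with a fixed anchor-drug dose together with five library-drug doses (not always all listed) in √10 steps. After 5 days, a combined fix-and-stain solution (final 0.05% Triton X-100, 1% formaldehyde, 1 ug/ml Hoechst) was added. Nuclei counted on 4× images gave relative viability as treated counts over vehicle counts, reported as the median of duplicate plates.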

Compound in experiment [2]: CCc1c2c(nc3ccc(OC(=O)N4CCC(N5CCCCC5)CC4)cc13)-c1cc3c(c(=O)n1C2)COC(=O)[C@]3(O)CC [Irinotecan] + Cc1cc(Nc2cc(N3CCN(C)CC3)nc(Sc3ccc(NC(=O)C4CC4)cc3)n2)n[nH]1 [Tozasertib] (partner 0.1 µM)
The method, boiled down:
as §1

Compound in experiment [3]: CC[C@@H](C)CNCC(=O)N1CCC2=C([C@@H]1COC3=CC=CC(=C3)C)C=CS2 [RU-SKI 43] + Cc1nc(Nc2ncc(C(=O)Nc3c(C)cccc3Cl)s2)cc(N2CCN(CCO)CC2)n1 [Dasatinib] (partner 0.075 µM)
In short, it runs like this:
as §1

Compound in experiment [4]: CCc1c2c(nc3ccc(OC(=O)N4CCC(N5CCCCC5)CC4)cc13)-c1cc3c(c(=O)n1C2)COC(=O)[C@]3(O)CC [Irinotecan] + O=C(c1cc(Cc2n[nH]c(=O)c3ccccc23)ccc1F)N1CCN(C(=O)C2CC2)CC1 [Olaparib] (partner 8 µM)
The method, boiled down: as §1

With UMC-11, the relative viability in experiment [1] (first compound 0.6325 µM) was determined as 0.262; in experiment [1] (first compound 2 µM), 0.343; in experiment [1] (first compound 6.325 µM) it was 0.235; in experiment [1] (first compound 20 µM), 0.206; in experiment [2] (first compound 0.6325 µM), 0.194; in experiment [2] (first compound 2 µM) it was 0.25. The relative viability in experiment [2] (first compound 6.325 µM) is 0.268; in experiment [2] (first compound 20 µM), 0.247; in experiment [3] (first compound 0.1 µM), 0.526; in experiment [3] (first compound 0.3162 µM), 0.685; in experiment [3] (first compound 1 µM), 0.577; in experiment [3] (first compound 3.162 µM), 0.516. Moreover, the relative viability in experiment [3] (first compound 10 µM) was 0.471; in experiment [4] (first compound 0.6325 µM) it was 0.273; in experiment [4] (first compound 2 µM) it was 0.206; in experiment [4] (first compound 6.325 µM), 0.283; in experiment [4] (first compound 20 µM), 0.226.
